From patent publication US20260265203A1, “CRYSTAL FORMS OF NITROGEN-CONTAINING SPIRO COMPOUND, PREPARATION METHOD THEREFOR AND USE THEREOF” (WUHAN CREATERNA SCIENCE AND TECHNOLOGY CO., LTD., priority 2023, published 2026)
pIC50: −log10 of the molar value. In brackets after ≈: the same amount, converted by molar mass. Like-named read-outs stand apart in the source and are kept apart here.

How the values were obtained:
[1] = tested on: alternative pathway; experiment: Rabbit erythrocyte hemolysis assay (alternative pathway inhibition); assay type: cell-based, human; conditions: rabbit erythrocytes, NHP or NHS (matrix of the value not stated)
From the text: Normal Human Serum (NHS) (collected from healthy individuals), Normal Human Plasma (NHP) (Shanghai Yuduo), 96-well enzyme-linked immunosorbent assay (ELISA) plates (Jet Biofil), Japanese big-ear white rabbits (Wuhan WQJX Biotechnology), Alsever's solution (Procell), centrifuge (Thermo, PICO17), constant temperature shaker (Shanghai Fuma), decolorization shaker (Beijing Liuyi Biotechnology), cell counter (Invitrogen, Counter Countess II). GVB°, EGTA, MgCl2, NaOH, microplate reader, microplate thermostatic shaker, pipettes, etc., were the same as Experiment 1.
48% NHP: 100% NHP was diluted to a concentration of 48% with buffer.
26.4% NPS: 100% NHS was diluted to a concentration of 26.4% with buffer. […]
In a 96-well microplate, for the experimental group 50 μL of 48% NHP or 26.4% NHS and 50 μL of compound solution were added; for the positive control group 50 μL of 48% NHP or 26.4% NHS and 50 μL of buffer containing 0.2% DMSO were added; for the blank control group 50 μL of 48% inactivated NHP or 26.4% inactivated NHS and 50 μL of buffer containing 0.2% DMSO were added; for the H2O group 100 μL of double-distilled water was added. […] The plate was centrifuged at 2000 g (3380 rpm) for 5 minutes, and 100 μL of supernatant was transferred to a new 96-well microplate, after which absorbance was measured at 415 nm. […]

[2] = Heating experiment of crystal form II; assay type: physicochemical
From the text: The resulting solids were subsequently characterized by XRPD, TGA, DSC, and ^1H NMR testings.

[3] = Water activity experiment (crystal form by XRPD); assay type: physicochemical
Experimental: Organic solvent and water were mixed at molar ratios of 0.001:0.999, 0.2:0.8, 0.5:0.5, 0.8:0.2, and 0.999:0.001. […] The mixtures were stirred at 25° C. and 50° C. for 30 minutes, respectively, followed by filtration, and the filtrate was collected. […] The results were analyzed after stirring for 5 days and 11 days, respectively.

[4] = Solubility experiments in biosolvents and water; assay type: physicochemical
Experimental: (§1) The analysis and detection of samples were conducted using Shimadzu instruments. Both stability and solubility experiments were measured using the following methods.
The samples were fully stirred in SGF, FaSSIF, FeSSIF, and water for 0.5 hours, 2 hours, and 24 hours before being withdrawn. Their solubility was determined using HPLC, and the solid form in the suspensions was analyzed by XRPD for its crystal form.

[5] = Wet grinding crystal transformation experiment; assay type: physicochemical; conditions: manual grinding with water or ethanol for 10 minutes
Experimental: 0.04 mL of water or ethanol was added, and manual grinding was performed for 2 min, 5 min, and 10 min, respectively. After each grinding period, XRPD was measured. If the solvent completely evaporates during the grinding process, an additional 0.04 mL of water or ethanol should be added to the mortar each time.

[6] = Hygroscopicity experiment (DVS); assay type: physicochemical
Experimental: The sample was analyzed using Intrinsic DVS ([…] UK). The test sample, approximately 20~30 mg, was placed into the sample basket and suspended in the measurement chamber. The temperature in the test chamber was maintained at 25±1° C., while the relative humidity is increased from 0% to 90% and then decreased back to 0% at a rate of 10% per hour. Mass data was recorded every 20 seconds. Each gradient pause lasts 60 minutes.
No change in crystal form was observed before and after the DVS measurement.

[7] = Tablet compression experiment; assay type: physicochemical; conditions: compressed at 40 MPa
[8] = Determination of stability in biosolvents (HPLC purity); assay type: physicochemical
Experimental: as §1
After thorough stirring for 0.5 hours, 2 hours, and 24 hours, the mixed solutions were diluted to 10 mL, and their purity was determined using HPLC. […] Main impurities are indicated by the boxes in FIGS. 26 to 29.

[9] = Solid-state stability experiment under open conditions (HPLC purity, XRPD); assay type: physicochemical
Experimental: as §1
The purity was determined by HPLC.

[10] = Stability of crystal form I in DMSO under high-temperature conditions (LCMS purity); assay type: physicochemical
Experimental: The LCMS curve was acquired using a Shimadzu instrument.
The suspension was stirred at 50° C. for 24 hours and 48 hours, respectively. The solid and filtrate were then analyzed by LCMS.

[11] = 25° C., DMSO-H2O, aw 0.0003-0.999
[12] = 50° C., DMSO-H2O, aw 0.0003-0.999
[13] = simulated gastric fluid, thermodynamic from solid, SGF
[14] = thermodynamic from solid, FaSSIF
[15] = thermodynamic from solid, FeSSIF
[16] = thermodynamic from solid, Water

Structure (SMILES): NCc1cccc(-c2cc(COc3ccccc3CC(=O)O)cc(N3CCC4(CC3)CC4)c2)c1 [Compound of formula A, 2-(2-((3′-(aminomethyl)-5-(6-azaspiro[2.5]octan-6-yl)-[1,1′-biphenyl]-3-yl)methoxy)phenyl)acetic Acid]
- pIC50 [1]: 7.39

Structure (SMILES): NCc1cccc(-c2cc(COc3ccccc3CC(=O)O)cc(N3CCC4(CC3)CC4)c2)c1 [crystal form II]
- Crystal form (XRPD) after heating ([2]; heated to 140° C.): no change in the crystal form
- Crystal form (XRPD) after heating ([2]; heated to 200° C.): crystal form I

Structure (SMILES): NCc1cccc(-c2cc(COc3ccccc3CC(=O)O)cc(N3CCC4(CC3)CC4)c2)c1 [crystal form I]
- Result (5 days): solid form ([3]; 25° C., ACN-H2O, aw 0.90-1.00): Crystal form I
- Result (11 days): solid form ([3]; 25° C., ACN-H2O, aw 0.90-1.00): Crystal
- Result (5 days): solid form [3, 11]: Crystal form I
- Result (11 days): solid form [3, 11]: Crystal
- Result (5 days): solid form ([3]; 25° C., IPA-H2O, aw 0.003-0.99): Crystal form I
- Result (11 days): solid form ([3]; 25° C., IPA-H2O, aw 0.003-0.99): Crystal
- Result (5 days): solid form ([3]; 50° C., ACN-H2O, aw 0.01-1.00): Crystal form I
- Result (11 days): solid form ([3]; 50° C., ACN-H2O, aw 0.01-1.00): Crystal
- Result (5 days): solid form [3, 12]: Crystal form I
- Result (11 days): solid form [3, 12]: Crystal
- Result (5 days): solid form ([3]; 50° C., IPA-H2O, aw 0.003-0.99): Crystal form I
- Result (11 days): solid form ([3]; 50° C., IPA-H2O, aw 0.003-0.99): Crystal
- solubility ([4]; Water, 0.5 h): LOQ
- Crystal form (XRPD) of suspended solid ([4]; after stirring for 24 hours in FaSSIF, FeSSIF, and water): remained unchanged
- solubility at 0.5 h ([4]; simulated gastric fluid, thermodynamic from solid, SGF, 0.5 h): > 5000 µg/mL
- solubility at 2 h [4, 13]: > 5000 µg/mL
- solubility at 24 h [4, 13]: > 5000 µg/mL
- solubility ([4]; simulated gastric fluid, thermodynamic from solid, SGF, read-out: solubility in SGF): > 5000 µg/mL
- solubility at 0.5 h ([4]; thermodynamic from solid, FaSSIF, 0.5 h): 54 µg/mL (≈ 118 µM)
- solubility at 2 h [4, 14]: 66 µg/mL (≈ 145 µM)
- solubility at 24 h [4, 14]: 75 µg/mL (≈ 164 µM)
- solubility ([4]; thermodynamic from solid, FaSSIF, FeSSIF, and water, read-out: solubility in FaSSIF, FeSSIF, and water): < 730 µg/mL
- solubility at 0.5 h ([4]; thermodynamic from solid, FeSSIF, 0.5 h): 630 µg/mL (≈ 1380 µM)
- solubility at 2 h [4, 15]: 700 µg/mL (≈ 1530 µM)
- solubility at 24 h [4, 15]: 730 µg/mL (≈ 1600 µM)
- solubility at 2 h [4, 16]: 0.2 µg/mL (≈ 0.438 µM)
- solubility at 24 h [4, 16]: 0.58 µg/mL (≈ 1.27 µM)
- Crystal form (XRPD) after wet grinding [5]: remained unchanged
- Crystal form (XRPD) before and after the DVS measurement [6]: No change
- weight gain (DVS) ([6]; 0-80% RH, 25° C.): 0.55%
- hygroscopicity ([6]; DVS): slight hygroscopicity
- Crystal form (XRPD) after tablet compression [7]: remained unchanged
- HPLC main peak purity ([8]; 0 h): 99.33%
- HPLC main peak purity ([8]; FaSSIF, 0.5 h): 98.97%
- HPLC main peak purity ([8]; FaSSIF, 2 h): 98.91%
- HPLC main peak purity ([8]; FaSSIF, 24 h): 98.86%
- HPLC main peak purity ([8]; FeSSIF, 0.5 h): 99.50%
- HPLC main peak purity ([8]; FeSSIF, 2 h): 99.34%
- HPLC main peak purity ([8]; FeSSIF, 24 h): 98.04%
- HPLC main peak purity ([8]; FeSSIF, starting value of the decline as stated in the text): 99.56%
- HPLC main peak purity ([8]; SGF, 0.5 h): 99.13%
- HPLC main peak purity ([8]; SGF, 2 h): 99.10%
- HPLC main peak purity ([8]; SGF, 24 h): 99.08%
- HPLC main peak purity ([8]; Water, 0.5 h): 99.06%
- HPLC main peak purity ([8]; Water, 2 h): 98.79%
- HPLC main peak purity ([8]; Water, 24 h): 98.77. %
- HPLC main peak purity ([9]; 0 days (initial)): 99.33%
- HPLC main peak purity ([9]; open, 25° C./60% RH, 3 days): 99.34%
- HPLC main peak purity ([9]; open, 25° C./60% RH, 7 days): 98.95%
- HPLC main peak purity ([9]; open, 25° C./60% RH, 14 days): 99.43%
- HPLC main peak purity ([9]; open, 25° C./90%(±5%) RH, 3 days): 99.18%
- HPLC main peak purity ([9]; open, 25° C./90%(±5%) RH, 7 days): 98.96%
- HPLC main peak purity ([9]; open, 25° C./90%(±5%) RH, 14 days): 99.52%
- HPLC main peak purity ([9]; open, 40° C./75% RH, 3 days): 99.30%
- HPLC main peak purity ([9]; open, 40° C./75% RH, 7 days): 99.00%
- HPLC main peak purity ([9]; open, 40° C./75% RH, 14 days): 99.48%
- Crystal form (XRPD) after storage ([9]; open, 60° C., 25° C./60% RH, 40° C./75% RH, 25° C./90(±5)% RH, 14 days): remained unchanged
- HPLC main peak purity ([9]; open, 60° C., 3 days): 99.36%
- HPLC main peak purity ([9]; open, 60° C., 7 days): 98.92%
- HPLC main peak purity ([9]; open, 60° C., 14 days): 99.44%
- Purity by LCMS (254 nm) ([10]; crystal form I before stirring): 99.06%
- Purity by LCMS (254 nm) ([10]; stirred in DMSO at 50° C. for 24 hours, filtrate): 98.71%
- Purity by LCMS (254 nm) ([10]; stirred in DMSO at 50° C. for 24 hours, solid): 99.48%
- Purity by LCMS (254 nm) ([10]; stirred in DMSO at 50° C. for 48 hours, filtrate): 97.14%
- Purity by LCMS (254 nm) ([10]; stirred in DMSO at 50° C. for 48 hours, solid): 98.92%
